We go through 21 compounds from ChEMBL document CHEMBL1201862, “PubChem BioAssay data set” (2004).

“And” between values parts separate entries of the source, which are not always exact repeats. Equal values may be shown once.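 Exposure lasted 48 hours, with cells grown in 96-well plates and compounds tested at five concentrations. GI50 is the concentration that inhibits growth by half.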 The source made the active and inactive calls. Cut-off read from the data, not from the text of the source: active = GI50 up to about 1.1 µM and inactive = higher. Bounds are passed on as bounds.

Test systems include DLD-1; DMS-273; HOP-18; LXFL 529; RXF 631; SNB-78; XF498; KM-20L2; DMS-114.
Experiment in all cases: NCI anticancer screen, dose series, 48 h

Turning to `O=C(NC(=O)c1c(F)cccc1F)Nc1cccc(Oc2ncc(Cl)cn2)c1`, the GI50 with DLD-1 was > 100 µM (inactive); in the assay on DMS-273, 2.45 µM (inactive); with HOP-18, > 100 µM (inactive); in the assay with LXFL 529, > 91 µM (inactive); with RXF 631 it was > 100 µM (inactive); with SNB-78, > 100 µM (inactive). The GI50 in the assay with XF498 was 19.7 µM (inactive).

Consider `CSC1CC2C(CC1(C)O)C2(C)C` (stereo not given), for which the GI50 in the assay with DLD-1 is > 100 µM (inactive); in the assay on DMS-273, > 100 µM (inactive) and 69.3 µM (inactive); in the assay on KM-20L2, > 100 µM (inactive) and 74.8 µM (inactive); in the assay on LXFL 529, > 100 µM (inactive); in the assay with SNB-78, > 100 µM (inactive).

Take `Nc1ccc(Sc2c3ccccc3nc3ccccc23)cc1`: the GI50 in the assay on DLD-1 was 6 µM (inactive); with DMS-114, 18.2 µM (inactive); in the assay with DMS-273, 14.1 µM (inactive); in the assay with HOP-18 it was 22.3 µM (inactive); with KM-20L2, 16.7 µM (inactive); with LXFL 529, 7.96 µM (inactive). For the same compound, the GI50 with SNB-78 was 22.4 µM (inactive); with XF498, 14.4 µM (inactive).

As for `Cc1nc2ccccc2c(=O)n1NC(=S)Nc1cccc(Cl)c1`, the GI50 with DLD-1, with DMS-273, in the assay on HOP-18 and in the assay with LXFL 529 was > 100 µM (inactive) in each case.

On to `CC1=N/C(=C\c2c(O)ccc3ccccc23)C(=O)O1`, for which the GI50 in the assay with DLD-1, in the assay on DMS-114, in the assay on HOP-18, in the assay on KM-20L2, in the assay with LXFL 529 and with SNB-78 was > 100 µM (inactive) in each case.

For the compound `[N-]=[N+]=NC1C2CC3CC(C2)CC1C3` (stereo not given), the GI50 in the assay with DMS-114, in the assay with DMS-273, in the assay with HOP-18, in the assay on KM-20L2, in the assay with LXFL 529 and with RXF 631 was > 100 µM (inactive) each time. The GI50 in the assay with SNB-78 was > 100 µM (inactive).

For the compound `COc1cc([C@@H]2c3cc4c(cc3[C@@H](NC(=O)c3cccc([N+](=O)[O-])c3)C3COC(=O)[C@@H]32)OCO4)cc(OC)c1O` (stereo not given in full), the GI50 in the assay with DLD-1 is 3.33 µM (inactive); with DMS-114, 0.548 µM (active); in the assay with DMS-273, 0.149 µM (active); in the assay on KM-20L2, 2.82 µM (inactive); in the assay on LXFL 529, 10.3 µM (inactive); in the assay on RXF 631, 1.31 µM (inactive). The GI50 in the assay on SNB-78 was 4.73 µM (inactive).

Turning to `COc1ccc(C(=O)C(c2ccc(OC)cc2)C2OC(=O)C(Cl)=C2Cl)cc1` (stereo not given), the GI50 in the assay on DLD-1, with DMS-114, in the assay with HOP-18, with LXFL 529, in the assay on SNB-78 and with XF498 was > 100 µM (inactive) throughout.

On to `O/N=C/c1cc2c(cc1Br)OCO2`, for which the GI50 in the assay on DLD-1, in the assay on DMS-273, with HOP-18, in the assay with KM-20L2, in the assay on LXFL 529 and in the assay with RXF 631 was > 100 µM (inactive) throughout. For the same compound, in the assay on SNB-78, the GI50 is > 100 µM (inactive).

Turning to `OCC(O)C(OC1OC(CO)C(O)C(O)C1O)c1nn(-c2ccc(Cl)cc2)c2nc3cc(Cl)c(Cl)cc3nc12` (stereo not given), the GI50 with DLD-1, in the assay on DMS-114, in the assay with KM-20L2, in the assay with LXFL 529, with SNB-78 and with XF498 was > 100 µM (inactive) each time.

Regarding `Cc1ccccc1C(C#N)/C(=N/NC(N)=S)C(=O)Nc1c(C)cccc1C` (stereo not given), the GI50 is > 100 µM (inactive) in the assay with DLD-1; 10.4 µM (inactive) with DMS-114; > 100 µM (inactive) in the assay on HOP-18; > 100 µM (inactive) in the assay with KM-20L2; > 100 µM (inactive) in the assay on LXFL 529; > 100 µM (inactive) in the assay with RXF 631. The GI50 in the assay on SNB-78 is > 100 µM (inactive); in the assay on XF498, 32.8 µM (inactive).

As for `O=C(O)/C(Cl)=C(/Cl)C(=O)Nc1cccc(Cl)c1`, the GI50 with DLD-1 was 15.6 µM (inactive); with DMS-114 it was 16.6 µM (inactive); in the assay with DMS-273, 12.9 µM (inactive); in the assay with HOP-18, 20.4 µM (inactive); with KM-20L2 it was 19.7 µM (inactive); with LXFL 529 it was 15.4 µM (inactive). Moreover, the GI50 was 22 µM (inactive) in the assay with RXF 631, 25.2 µM (inactive) with SNB-78 and 18.1 µM (inactive) in the assay on XF498.

As to `Clc1ccc(OCCSCCCCCCCCCCSCCOc2ccc(Cl)cc2)cc1`, the GI50 in the assay with DLD-1, in the assay on DMS-114, with DMS-273, in the assay with HOP-18, in the assay on KM-20L2 and in the assay with SNB-78 was > 100 µM (inactive) in each case.

Turning to `CN1CCCC2[C@@H]3CCC4=C(O)C(=O)CC[C@]4(C)C3CC[C@@]21C` (stereo not given in full), the GI50 in the assay with DMS-114, in the assay on DMS-273, with HOP-18, in the assay with KM-20L2, in the assay on LXFL 529 and in the assay with RXF 631 was > 100 µM (inactive) in each case. In the assay with XF498, the GI50 was > 100 µM (inactive).

In the case of `COC(=O)C12C3C4C1C1C2C3C41C(=O)OC(C)(C)C` (stereo not given), the GI50 is > 47.9 µM (inactive) in the assay on DLD-1; > 44.8 µM (inactive) in the assay on DMS-114; > 44.1 µM (inactive) in the assay on DMS-273; > 100 µM (inactive) in the assay on HOP-18; > 100 µM (inactive) in the assay on KM-20L2; > 100 µM (inactive) with LXFL 529. Further, the GI50 in the assay with RXF 631, with SNB-78 and in the assay on XF498 was > 100 µM (inactive) throughout.

As to `CCN(CC)CCOC(=O)Cc1cccc2c(=O)cc(-c3ccccc3)oc12`, the GI50 with DLD-1 was 94.8 µM (inactive); in the assay on DMS-114, 31.8 µM (inactive); with DMS-273, 361 µM (inactive); in the assay on HOP-18, 78.2 µM (inactive); with KM-20L2, 95.3 µM (inactive); with SNB-78, 84.9 µM (inactive). For the same compound, in the assay with XF498, the GI50 is 18 µM (inactive).

Consider `COC(=O)C(C(=O)C(=O)Nc1cccc(O)c1)c1nc2ccc(Cl)cc2nc1O` (stereo not given), for which the GI50 in the assay on DLD-1 is > 100 µM (inactive); in the assay with DMS-114 it was > 100 µM (inactive); in the assay with HOP-18, 98.9 µM (inactive); in the assay with KM-20L2, > 100 µM (inactive); with LXFL 529, > 100 µM (inactive); in the assay with RXF 631 it was > 100 µM (inactive). In addition, the GI50 with SNB-78 was > 100 µM (inactive).

In the case of `Cc1cc2c(=O)cc(-c3ccc(C(F)(F)F)cc3)oc2c(C(=O)O)c1C`, the GI50 in the assay on DLD-1, with DMS-114, in the assay on DMS-273, in the assay with HOP-18, with KM-20L2 and in the assay with LXFL 529 was > 100 µM (inactive) in each case. The GI50 in the assay with RXF 631, in the assay with SNB-78 and with XF498 was > 100 µM (inactive) throughout.

For `O=S(=O)(O)C1=C2Sc3ccccc3N=C2c2ccccc2C1`, the GI50 in the assay on DLD-1 was 15.3 µM (inactive); in the assay on DMS-114, 10.3 µM (inactive); in the assay with DMS-273, 15.5 µM (inactive); with HOP-18 it was 12.4 µM (inactive); with KM-20L2, 18.4 µM (inactive); in the assay on LXFL 529, 12.2 µM (inactive). In addition, the GI50 with RXF 631 was 16 µM (inactive); in the assay with SNB-78, 17.8 µM (inactive); in the assay with XF498, 17.7 µM (inactive).

For the compound `c1ccc(C2[C@@H]3CCCc4ccccc4C3=NN2c2ccccc2)cc1` (stereo not given in full), the GI50 was 51.6 µM (inactive) in the assay on DLD-1; > 100 µM (inactive) in the assay with DMS-114; > 100 µM (inactive) with KM-20L2; 53.2 µM (inactive) in the assay on LXFL 529; > 100 µM (inactive) with SNB-78; 28.2 µM (inactive) in the assay on XF498.

For `Oc1cc(-c2ccccn2)nc2ccc(Cl)cc12`, the GI50 with DLD-1 is 41.5 µM (inactive); with HOP-18, 57.5 µM (inactive); with LXFL 529, 27.3 µM (inactive); in the assay on SNB-78, 80.7 µM (inactive); with XF498, 21.5 µM (inactive).
